Entries after “also recorded” stand apart in the source; their conditions may differ.
Key:
TLR9 = assay: IFN-β up-regulation in plasmacytoid dendritic cells by TLR9 agonist ODN2395; assay type: cell-based
Excerpt: TLR9 signalling involves activation of NF-κB and IRF downstream pathways. The (+)-morphinan inhibited both of these pathways following activation of TLR9 (but not activation of TLR4 or other receptors). The type C TLR9 agonist, ODN2395, and the TL4 agonist, LPS, both induce up-regulation of IL-1β in peritoneal macrophages via activation of NF-κB.

[1] = tested on: hepatic IR injury in steatotic livers; assay: IR injury in high fat diet (HFD) steatotic liver model; assay type: in vivo, mouse
Excerpt: In addition to the scarcity of liver donations, many of the donor livers have a significant degree of steatosis which is known to increase IR injury. Thus, many otherwise healthy, but steatotic, livers are rejected for transplantation. If a drug can be shown to reduce IR injury in steatotic livers it would allow use of steatotic livers for transplantation and increase the total number of liver transplants that could be performed. To test this, mice were placed on a high fat diet (HFD) for 12 weeks to induce hepatic steatosis, which was followed by IR injury. For this, mice were subjected to hepatic ischemia by occluding the vasculature supplying the left and median lobes (ischemic lobes) of the liver by a microvascular clamp. After 1 hour of ischemia, the blood supply was resumed (reperfusion). Some animals were sacrificed after 3 hour of reperfusion, and others after 12 hours or reperfusion. The experimental group received Cmpd II-78 at a dose of 80 mg/kg given intraperitoneally 1 hour prior to starting ischemia. Cellular and molecular responses were assessed essentially as described above in Example 9.

acute pancreatitis = assay: Caerulein-induced acute pancreatitis model; assay type: in vivo, mouse; settings: 30 mg/kg subcutaneously, vs saline
Description: Acute pancreatitis can be induced in rodents by administration of caerulein, a CCK analog derived from derived from the Australian tree frog Litoria caerulea. To determine whether a (+)-morphinan could reduce the inflammation and/or consequences of pancreatitis, the following example was performed. Mice were administered subcutaneously an effective dose of caerulein and either saline or Cmpd II-78 (30 mg/kg). After the standard period of time, the mice were sacrificed. Pancreatic tissue sections were stained and examined for neutrophil infiltration, and pancreatic trypsin, serum amylase, and pancreatic caspase −1 activities were measure using standard assays.

[2] = tested on: Experimental Autoimmune Encephalomyelitis (EAE); settings: bid for 20 days; Cmpd II-98 5 mg/kg sc, others 20 mg/kg sc, Prednisolone 4.5 mg/kg ip; vs vehicle control
[3] = tested on: chronic constriction injury (CCI) neuropathic pain model; assay: Mechanical allodynia (Von Frey) in chronic constriction injury (Bennett) model, Example 3; assay type: in vivo, rat; settings: Day 14 post-surgery, 30 and 90 min post-dosing, vs vehicle; for Mechanical allodynia (50% allodynia threshold), left (affected) paw: (+)-naloxone.HCl 66.7 mg/kg S.C., Gabapentin 100 mg/kg I.P.
Excerpt: Neuropathic pain affects approximately 1% of the U.S. population and is extremely difficult to manage. Usually the pain is chronic, severe, and fails to respond to traditional analgesic drugs. Fortunately, one of the most widely used animal models for neuropathic pain closely mimics the pain endured by patients. In this model, termed the chronic constriction injury (CCI) or Bennett model, four closely spaced ligatures tied loosely around the sciatic nerve of a rat cause demyelination of the nerve, resulting in spontaneous pain, such as prolonged paw elevation and licking of the ligated paw. Induced pain in the nerve-injured limb can be measured using Von Frey filaments, applied to the plantar surface of the paw to test for responses to non-noxious tactile stimulation. The onset of this heightened mechanical allodynia is quite rapid and it persists for 2-3 months.
In this example, the CCI ligation was performed on the left sciatic nerve in three groups of rats. Von Frey testing of mechanical allodynia was performed on both paws on Day 14 to determine the analgesic efficacy of the test agent. The testing was performed pre-dosing, and at 30 and 90 minutes post-dosing.
The animals were allocated to treatment groups based on their baseline Von Frey data, measured prior to surgery. The mechanical allodynia scores for each group were reviewed to ensure that the mean values and standard deviation satisfied the assumption of homogeneity. Thirty-one (31) animals were used on the study. Thirty (30) animals were initially allocated to treatment groups, and the remaining […] animals were held as spares. One spare was then used to replace an animal that died during surgery. Body weights were taken one day after arrival, prior to surgery and weekly thereafter. On Day 14, after the final behavioral testing, the animals were euthanized by carbon dioxide asphyxiation. No necropsy was performed nor tissues collected.
All surgeries were performed under aseptic conditions. Prior to surgery, the rats were sedated using inhaled Isoflurane anesthetic. The left leg was shaved and prepped. The common sciatic nerve was exposed and freed from adherent tissue at mid-thigh by separating the muscle (biceps femoris) by blunt dissection. Proximal to the sciatic nerve's trifurcation; approximately 7 mm of nerve was freed from the adhering tissue. Four ligatures, approximately 1 mm apart, were tied loosely around the nerve using 6.0 chromic catgut. Each of the sutures was tied loosely with a square knot around the sciatic nerve. A brief twitch in the muscle surrounding the exposure was an indicator of the desired degree of constriction. The site was then closed using the appropriate suture material. Post-operative care and observations were carried out until the animal recovered consciousness.
The animals underwent a series of behavioral testing for neuropathic pain assessment. A Von Frey test of mechanical allodynia was performed on both hind paws prior to surgery to achieve a baseline measurement for randomization and then following surgery on Day 14 (test article efficacy) according to Table 4.
Twice prior to surgery, the animals were acclimated to the allodynia apparatus. This habituated the rats to the testing devices to familiarize them with the apparatus so they were calm at the time of testing. […] Animals were first habituated to the testing chamber so that they were calm enough for their pain threshold to be assessed. […]

| Compound | IFN-β mRNA up-regulation (IRF pathway) (TLR9) | IR-induced activation of MAP kinases (western blotting), steatotic livers ([1]; HFD) | IR-induced cleavage and activation of TLR9 (western blotting), steatotic livers ([1]; HFD) | Histological Suzuki score (hepatic IR injury), steatotic livers ([1]; HFD 12 weeks, 80 mg/kg ip 1 hour prior to ischemia, 3 and 12 hours of reperfusion) | IR-induced serum ALT levels, steatotic livers ([1]; HFD, 80 mg/kg ip, 3 and 12 hours of reperfusion) | Anti-inflammatory molecule IL-1Ra mRNA, steatotic livers ([1]; HFD, 12 hours of reperfusion) | IR-induced pro-inflammatory cytokines (IL-1β, MCP-1, NLPR3 mRNA), steatotic livers ([1]; HFD, 12 hours of reperfusion) | Neutrophil infiltration in the pancreas (acute pancreatitis) | Pancreatic caspase 1 activity (acute pancreatitis) | Pancreatic trypsin activity (acute pancreatitis) | Serum amylase (acute pancreatitis) | EAE clinical scores [2] | Mechanical allodynia (50% allodynia threshold), left (affected) paw ([3]; listed as (+)-naloxone) | Mechanical allodynia (50% allodynia threshold), left (affected) paw ([3]; listed as (+)-naloxone.HCl) | Mechanical allodynia (50% allodynia threshold), right (unaffected) paw [3] |
| --- | --- | --- | --- | --- | --- | --- | --- | --- | --- | --- | --- | --- | --- | --- | --- |
| CN[C@@H]1CC[C@]2(O)[C@@H]3Cc4ccc(O)c5c4[C@]2(CCN3CC2CC2)[C@@H]1O5 [II-78] | this activation was inhibited; also recorded: reduced both NFκB- and IRF-dependent pathways downstream of TLR9 | reduction of IR-induced activation of MAP kinases | reduction of IR-induced cleavage and activation of LTR9 | reduced hepatic ischemic reperfusion (IR) injury in steatotic livers | reduced IR-induced serum alanine transaminase (ALT) levels in steatotic livers | increased an anti-inflammatory molecule | reduced IR-induced pro-inflammatory cytokines | dramatically reduced; also recorded: reduced neutrophil infiltration in the pancreas | Significant reductions; also recorded: reduced pancreatic caspase 1 activity | Significant reductions; also recorded: reduced | Significant reductions; also recorded: reduced serum amylase | did not improve EAE |  |  |  |
| C=CCN1CC[C@]23c4c5ccc(O)c4O[C@H]2C(=O)CC[C@]3(O)[C@H]1C5 [(+)-Naloxone, (+)-naloxone] |  |  |  |  |  |  |  |  |  |  |  |  | effective at significantly reducing the allodynia | effective analgesic for reversing neuropathic pain | no significant group differences |

— patent US10363251B2, “(+)-morphinans as antagonists of toll-like receptor 9 and therapeutic uses thereof” (Mallinckrodt LLC, priority 2009, dated 2019)
